Assay [1] concerns A549 non-small cell lung cancer cell line. Briefly: Proliferation of A549 (CellTiter Glo). In kind it is cell-based. As to conditions: Homo sapiens, A549, 96 h, read-out: IC50 μM (A549 Cell Line). Put shortly:
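A549 cells (K-Ras mutant) seeded 1,000/well, 24 h at 37° C, then treated with 3-fold serial dilutions (final DMSO ≤0.25%) for 96 h. Viability by CellTiter Glo luminescence; % inhibition vs DMSO-only Max, curve-fit to give IC50, relative IC50 and % top inhibition.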

The target of assay [2] is T1, C1b domain of human PKCθ (Homo sapiens, UniProt Q04759).
T1 construct: Genes encoding C1b domains of human PKCα, δ, ε, θ, and PKD1 (PKCμ) were synthesized; made in house; host or cells: E. coli BL21(DE3)
T1 sequence (Q04759 231-281 limits assumed): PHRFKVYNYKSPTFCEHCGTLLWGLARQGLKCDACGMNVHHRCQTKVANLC
As to the kind of experiment: Competitive 3H-PDBu binding to C1b domain of PKCθ. Put shortly: (§1)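 First, the E. coli-produced human GST-C1b protein was mixed with compound and 3H-PDBu and shaken 10 min at 37° C. Next, the plate sat on ice 20 min before filtration and scintillation counting of bound tracer. Finally, IC50 fits were transformed into Ki values.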

Assay [3] addresses T2, C1b domain of human PKD1 (PKCμ) (Homo sapiens, UniProt Q15139).
T2 construct: Genes encoding C1b domains of human PKCα, δ, ε, θ, and PKD1 (PKCμ) were synthesized; made in house; host or cells: E. coli BL21(DE3)
T2 sequence (Q15139 270-320 limits assumed): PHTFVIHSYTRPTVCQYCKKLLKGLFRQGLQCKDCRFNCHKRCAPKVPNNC
As to the kind of experiment: biochemical. In kind it is binding. Put shortly:
as §1

The target in assay [4] is T3, C1b domain of human PKCα (Homo sapiens, UniProt P17252).
T3 construct: Genes encoding C1b domains of human PKCα, δ, ε, θ, and PKD1 (PKCμ) were synthesized; made in house; host or cells: E. coli BL21(DE3)
As to the kind of experiment: biochemical. The class given is binding. As to conditions: 3H-PDBu competition; for Ki: Ki PKCα. The essentials:
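Competitive binding against 3H-PDBu tracer used recombinant GST-C1b fusion protein expressed in E. coli. Incubation ran 10 min at 37°C with shaking, then 20 min on ice, followed by filtration and scintillation counting of trapped 3H-PDBu. Affinity was derived using each protein preparation's experimentally determined Kd for 3H-PDBu.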

Assay [5] deals with Mino (Lymphoma) cell line. As to the kind of experiment: Proliferation of Mino. In kind it is cell-based. As to conditions: for IC50: Homo sapiens, MINO, read-out: IC50 in μM Mino (Lymphoma); for ratio of (IC50 of K01)/(IC50 of compound), Mino: value in parenthesis. The essentials:
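Luminescent ATP readout (CellTiter Glo) after 96 h compound exposure measured growth inhibition relative to DMSO-only wells, from which IC50 was fitted. Seeding densities were 800-1000 cells/well for KP-4, 5000 for HL-60 and 5000-10000 for Namalwa and Mino.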

In assay [6] the target is T4, C1b domain of human PKCδ (Homo sapiens, UniProt Q05655).
T4 construct: Genes encoding C1b domains of human PKCα, δ, ε, θ, and PKD1 (PKCμ) were synthesized; made in house; host or cells: E. coli BL21(DE3)
T4 sequence (Q05655 230-280 limits assumed): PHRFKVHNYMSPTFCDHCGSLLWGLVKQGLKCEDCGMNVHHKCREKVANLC
Briefly: Competitive 3H-PDBu binding to C1b domain of PKCδ. As to conditions: Ki PKCδ, 3H-PDBu competition. Put shortly: as §1

In assay [7] the test system is Panc2.13 (Pancreatic) cell line. Briefly: Proliferation of Panc2.13. The class given is cell-based. As to conditions: for ratio of (IC50 of K01)/(IC50 of compound), Panc2.13: value in parenthesis; for IC50: read-out: IC50 in μM Panc2.13 (Pancreatic). Put shortly: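 After a 24 h settling period at 37° C, each line received compound from a 3-fold serial series with DMSO capped at 0.25%. Incubation ran 96 h before CellTiter Glo reagent was added. Inhibition % = (Max − sample)/Max × 100, with Max from DMSO-treated cells.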

Assay [8] relates to PANC1 cells. As to the kind of experiment: Sphere formation assay (cancer stemness). In kind it is cell-based. As to conditions: Homo sapiens, PANC-1, read-out: concentration exhibiting at least 50% inhibition on the sphere forming efficiency. As to the method: A group of diterpenoid compounds of the present disclosure were tested to assess their effects on blocking formation of spheres from cancer cell lines such as PANC1, a K-Ras mutant pancreatic cell line. Briefly, PANC1 cells were harvested, re-suspended as single cell suspensions, counted and seeded into Ultra Low Attachment Culture 96-well plate (Corning, Cat #3474) at 100 cells/well in 100 μl of complete media (with 10% FBS) containing 2% Matrigel (Corning, Cat #354234) and DMSO or compounds. Six replicates per condition were seeded. The seeded cells were placed in the 37° C. tissue culture incubator. 10 μl of low serum containing media (with 0.1% FBS) was added to each well every week. Spheres formed after 3-4 weeks were counted. Sphere forming efficiency was expressed as percentage of # of spheres/# of cells seeded.

Each structure is given as a SMILES string. Where only a bound is given, the exact number is not on record here.

By Ki is commonly meant a measure of affinity in units of concentration, obtained from inhibition or displacement. A higher Ki goes with a looser hold on the target.

As for `CC1=C[C@H]2[C@@]3(O)[C@H](C)C[C@]4(OC(=O)[C@@H](N)CC5CCCCC5)[C@H]([C@@H]3C=C(CO)C[C@]2(O)C1=O)C4(C)C` [Compound K101-C1327], the IC50 in assay [1] was 0.06 to 0.1 µM; in assay [5], 0.001 to 0.01 µM; in assay [7], 0.1 to 0.2 µM. In addition, the Ki in assay [2] is 5 to 10 nM; in assay [3], under 5 nM; in assay [6], under 5 nM. Besides, in assay [4], the “Ki PKCα” value is “E (E=>60 nM and ≤10 nM)”. In addition, the “ratio of (IC50 of K01)/(IC50 of compound), Mino” value (shortened to “ratio … Mino”) in assay [5] was determined as 7.33. Further, in assay [7], the “ratio of (IC50 of K01)/(IC50 of compound), Panc2.13” value (“ratio … Panc2.13” below) was 7.1.

With `CC1=C[C@H]2[C@@]3(O)[C@H](C)C[C@]4(OC(=O)[C@@H](N)[C@]56C[C@H]7C[C@H](C[C@H](C7)C5)C6)[C@H]([C@@H]3C=C(CO)C[C@]2(O)C1=O)C4(C)C` [Compound K101-C1347], the IC50 is 0.001 to 0.01 µM in assay [1], at most 50 nM in assay [8], 0.001 to 0.01 µM in assay [5] and 0.01 to 0.03 µM in assay [7]. Also, the Ki in assay [2] is under 5 nM; in assay [3], under 5 nM; in assay [4], 1 to 30 nM; in assay [6], under 5 nM. Further, the “ratio … Mino” value in assay [5] came out at 52.2. For the same molecule, the “ratio … Panc2.13” value in assay [7] turned out to be 71.7.

In the case of `CC1=C[C@H]2[C@@]3(O)[C@H](C)C[C@]4(OC(=O)[C@H](N)CCCCCCc5ccccc5)[C@H]([C@@H]3C=C(CO)C[C@]2(O)C1=O)C4(C)C` [Compound K101-C134801], the IC50 in assay [1] is 0.01 to 0.03 µM; in assay [8], at most 150 nM; in assay [5] it was 0.001 to 0.01 µM; in assay [7], 0.06 to 0.1 µM. In addition, the Ki was 1 to 30 nM in assay [2], under 5 nM in assay [3], 400 to 800 nM in assay [4] and 5 to 10 nM in assay [6]. Also, the “ratio … Mino” value in assay [5] came to 21.3. For the same molecule, the “ratio … Panc2.13” value in assay [7] was 13.4.

Regarding `CC1=C[C@H]2[C@@]3(O)[C@H](C)C[C@]4(OC(=O)[C@@H](N)CCCCCCc5ccccc5)[C@H]([C@@H]3C=C(CO)C[C@]2(O)C1=O)C4(C)C` [Compound K101-C134802], the IC50 in assay [1] was 0.001 to 0.01 µM; in assay [8], at most 50 nM; in assay [5], 0.001 to 0.01 µM; in assay [7], 0.01 to 0.03 µM. Further, the inhibitory constant (Ki) is under 5 nM in assay [2], under 5 nM in assay [3], 30 to 60 nM in assay [4] and under 5 nM in assay [6]. The “ratio … Mino” value in assay [5] is recorded as 52.2. Moreover, the “ratio … Panc2.13” value in assay [7] is reported as 57.3.

For the origin of these results see patent US20220411362A1, “DITERPENOID COMPOUNDS THAT ACT ON PROTEIN KINASE C (PKC)” (K-Gen, Inc., priority 2019, published 2022).
